Assay results from US4489091A, “Antilipemic and anti-inflammatory compositions containing sulfonate derivatives” (Taiho Pharmaceutical Company Limited, priority 1980, dated 1984).
Where two headings read alike, the source gives them in different places.

Tests used:
[1] = system: triglycerides; assay: Antilipemic effect: percent triglycerides inhibition in plasma of rats given an olive oil-cholesterol mixture; format: in vivo, male Wistar rats; details: for inhibition in vivo at 100 mg/kg: read-out: Anti-lipemic effect, TG (percent triglycerides inhibition); for inhibition in vivo at 200 mg/kg: read-out: Anti-lipemic effect, TG (percent triglycerides inhibition), asterisked
Protocol: (§1) The above compounds of this invention are tested by the following methods for antilipemic effect and acute toxicity. In the column of antilipemic effect in the table, the asterisked values indicate the effect achieved by orally giving 200 mg/kg of the compounds concerned, and the unmarked values, the effect attained by orally giving 100 mg/kg. In the same column, "TG" stands for percent triglycerides inhibition and "CS" percent cholesterol inhibition.
(§2) Seven-week-old male Wistar rats weighing 200 to 220 g are used, 5 rats in each group.
(§3) Each compound of the invention (100 mg or 200 mg) is dissolved in 10 ml of an olive oil-cholesterol mixture (containing 15% of cholesterol). The mixture containing the compound is orally given to the rat with a probe at a dose of 10 ml/kg. Two or 8 hours thereafter, 6 ml of whole blood is withdrawn from the descending aorta of the rat under ether anesthesia with a syringe containing heparin. The blood is centrifuged at 5° C. and 3000 r.p.m. to obtain the plasma. The plasma collected after the lapse of 2 hours is used for determining the triglycerides content, and the plasma obtained 8 hours later for determining the total cholesterol content, using a triglycerides measuring kit (trade mark "Triglycerides-B Test Wako," product of Wako Junyaku Co., Ltd., Japan) and a total cholesterol measuring kit (trade mark "Cholesterol Test Wako," product of the same), respectively. The olive oil-cholesterol mixture containing no compound is similarly given to a control group, while no treatment is conducted for a normal group. The triglycerides and total cholesterol contents in the plasma are also determined for these groups in the same manner as is the case with the test groups.
(§4) The present hyperlipidemia inhibition achieved by the present compound is given by [formula] in which A is the triglycerides (cholesterol) content of the control group, B is the triglycerides (cholesterol) content of the normal group, and C is the triglycerides (cholesterol) content of the group to which the present compound is given.

[2] = system: cholesterol; assay: Antilipemic effect: percent total cholesterol inhibition in plasma of rats given an olive oil-cholesterol mixture; format: in vivo, male Wistar rats; details: for inhibition in vivo at 100 mg/kg: read-out: Anti-lipemic effect, CS (percent cholesterol inhibition); for Anti-lipemic effect, CS (percent cholesterol inhibition), asterisked: oral 200 mg/kg (asterisked values)
Protocol: as §1, §2, §3, §4

[3] = Acute toxicity; details: rat, in vivo
Excerpt: Six-week-old male Wistar rats weighing 180 to 200 g are used, 5 rats in each group. Each compound of the invention is suspended in a 30% aqueous solution of polyethylene glycol 6000 and orally given to the rat at the dosage shown in Table 2. The animals are checked for poisoning, body weight and survival to determine the LD50 value.

[4] = oral 100 mg/kg, plasma 2 hours after dosing, Wistar rat
[5] = oral 100 mg/kg, plasma 8 hours after dosing, Wistar rat
[6] = oral, six-week-old male Wistar rats, suspended in 30% aqueous polyethylene glycol 6000, read-out: LD50
[7] = oral 200 mg/kg (asterisked values), plasma 2 hours after dosing, Wistar rat
[8] = plasma 8 hours after dosing, Wistar rat

SMILES | inhibition in vivo at 100 mg/kg [1, 4] [%] | inhibition in vivo at 100 mg/kg [2, 5] [%] | LD50 ([3]; po) [mg/kg] | other results
CCCCC(CC)C(=O)COS(=O)(=O)c1ccc(C)cc1 (stereo not drawn) [Compound 26] | 85 | 72 | > 4000 | –
CCCC(=O)COS(=O)(=O)c1ccccc1C [Compound 29, 2-oxopentyl-o-toluene sulfonate] | 73 | 30 | – | LD50 [3, 6]: > 1500 mg/kg
CCCCC(=O)COS(=O)(=O)c1ccccc1C [Compound 30] | 70 | 36 | > 1500 | –
CCCC(=O)COS(=O)(=O)c1ccc(OC)cc1 [Compound 34] | 72 | 68 | > 1500 | –
CCCCC(=O)COS(=O)(=O)c1ccc(OC)cc1 [Compound 35, 2-oxahexyl-p-methoxybenzene sulfonate] | 87 | 72 | – | LD50 [3, 6]: > 2000 mg/kg
CCCCCC(=O)COS(=O)(=O)c1ccc(OC)cc1 [Compound 36] | 78 | 79 | > 2000 | –
COc1ccc(S(=O)(=O)OCC(=O)CCC(C)C)cc1 [Compound 40] | 72 | 70 | > 2000 | –
C=CCCC(=O)COS(=O)(=O)c1ccc(OC)cc1 [Compound 41] | 82 | 61 | > 2000 | –
CCCC(=O)COS(=O)(=O)c1ccc(OCC)cc1 [Compound 43] | – | – | – | inhibition in vivo at 100 mg/kg ([1]; Rattus norvegicus, po, 2 h): 97%; inhibition in vivo at 100 mg/kg ([2]; Rattus norvegicus, po, 8 h): 120%; LD50 [3, 6]: > 2000 mg/kg
CCCCC(=O)COS(=O)(=O)c1ccc(OCC)cc1 [Compound 44] | 99 | 90 | > 2000 | –
CCCCCC(=O)COS(=O)(=O)c1ccc(OCC)cc1 [Compound 45, 2-oxoheptyl-p-ethoxybenzenesulfonate] | 85 | 80 | – | LD50 [3, 6]: > 3000 mg/kg
CCCCCCC(=O)COS(=O)(=O)c1ccc(OCC)cc1 [Compound 46, 2-oxooctyl-p-ethoxybenzene sulfonate] | 65 | 62 | – | LD50 [3, 6]: > 3000 mg/kg
CCCCCCCCCCC(=O)COS(=O)(=O)c1ccc(OCC)cc1 [Compound 48] | – | 55 | > 4000 | inhibition in vivo at 200 mg/kg [1, 7]: 72%
CCOc1ccc(S(=O)(=O)OCC(=O)C(C)CC)cc1 (stereo not drawn) [Compound 49] | 90 | 96 | > 2000 | –
CCOc1ccc(S(=O)(=O)OCC(=O)CCCCCCC(C)C)cc1 [Compound 51] | – | – | – | inhibition in vivo at 200 mg/kg ([1]; Rattus norvegicus, po, 2 h): 70%; inhibition in vivo at 100 mg/kg ([2]; Rattus norvegicus, po, 8 h): 62%; LD50 [3, 6]: > 4000 mg/kg
C=CCCC(=O)COS(=O)(=O)c1ccc(OCC)cc1 [Compound 52] | 95 | 97 | > 2000 | –
CCCCOc1ccc(S(=O)(=O)OCC(=O)CCC)cc1 [Compound 53] | – | – | – | inhibition in vivo at 100 mg/kg ([1]; Rattus norvegicus, po, 2 h): 61%; inhibition in vivo at 100 mg/kg ([2]; Rattus norvegicus, po, 8 h): 42%; LD50 [3, 6]: > 2000 mg/kg
CCCCCC(=O)COS(=O)(=O)c1ccc(OCCCC)cc1 [Compound 55] | – | – | – | inhibition in vivo at 200 mg/kg ([1]; Rattus norvegicus, po, 2 h): 69%; Anti-lipemic effect, CS (percent cholesterol inhibition), asterisked [2, 8]: 40%; LD50 [3, 6]: > 3000 mg/kg
CCCC(=O)COS(=O)(=O)c1ccc(Cl)cc1 [Compound 64] | 82 | 56 | > 1000 | –
CCCCC(=O)COS(=O)(=O)c1ccc(Cl)cc1 [Compound 65] | 87 | 49 | > 1000 | –
CC(C)CCC(=O)COS(=O)(=O)c1ccc(Cl)cc1 [Compound 70] | 82 | 47 | > 2000 | –
CCC(=O)COS(=O)(=O)c1c(C)cc(C)cc1C [Compound 72] | 91 | 90 | > 3000 | –
CCCCC(=O)COS(=O)(=O)c1c(C)cc(C)cc1C [Compound 74] | 77 | 87 | > 3000 | –

SMILES | inhibition in vivo at 100 mg/kg [1, 4] [%] | inhibition in vivo at 100 mg/kg [2, 5] [%] | LD50 ([3]; po) [mg/kg] | other results
CCCCCC(=O)COS(=O)(=O)c1c(C)cc(C)cc1C [Compound 75] | 53 | 60 | > 3000 | –
CCCCCCC(=O)COS(=O)(=O)c1c(C)cc(C)cc1C [Compound 76] | 55 | 62 | > 4000 | –
CCCCCCCC(=O)COS(=O)(=O)c1c(C)cc(C)cc1C [Compound 77, 2-oxononanyl-2,4,6-trimethylbenzene sulfonate] | 80 | 74 | – | LD50 [3, 6]: > 4000 mg/kg
Cc1cc(C)c(S(=O)(=O)OCC(=O)CC(C)(C)C)c(C)c1 [Compound 82] | 56 | 66 | > 3000 | –
Cc1cc(C)c(S(=O)(=O)OCC(=O)CCC(C)C)c(C)c1 [Compound 83] | 68 | 71 | > 3000 | –
CCCC(=O)COS(=O)(=O)c1c(C)cc(C)c(C)c1C [Compound 95, 2-oxopentyl-2,3,4,6-tetramethylbenzene sulfonate] | 96 | 97 | – | LD50 [3, 6]: > 3000 mg/kg
CCCCCCC(=O)COS(=O)(=O)c1c(C)cc(C)c(C)c1C [Compound 97] | 55 | 47 | > 3000 | –
CCC(C)C(=O)COS(=O)(=O)c1c(C)cc(C)c(C)c1C (stereo not drawn) [Compound 99] | 72 | 78 | > 3000 | –
CCCCC(CC)C(=O)COS(=O)(=O)c1c(C)cc(C)c(C)c1C (stereo not drawn) [Compound 100] | – | – | > 4000 | inhibition in vivo at 200 mg/kg [1, 7]: 66%; Anti-lipemic effect, CS (percent cholesterol inhibition), asterisked [2, 8]: 42%
CCCC(=O)COS(=O)(=O)c1ccc(C)cc1C [Compound 112] | 80 | 62 | > 2000 | –
CCCC(=O)COS(=O)(=O)c1c(CC)cc(CC)cc1CC [Compound 114] | 87 | 76 | > 3000 | –
CCCC(=O)COS(=O)(=O)c1ccc(C)c(C)c1C [Compound 117] | 70 | 71 | > 2000 | –
CCC(CC)C(=O)COS(=O)(=O)c1ccc(C)cc1 [Compound 121] | 63 | 66 | > 3000 | –
CCCC(C)C(=O)COS(=O)(=O)c1ccc(C)cc1 (stereo not drawn) [Compound 122] | 65 | 51 | > 3000 | –
CCCC(CC)C(=O)COS(=O)(=O)c1ccc(C)cc1 (stereo not drawn) [Compound 123] | 67 | 60 | > 3000 | –
CCCC(CCC)C(=O)COS(=O)(=O)c1ccc(C)cc1 [Compound 124] | 62 | 42 | > 3000 | –
CCC(C)CC(=O)COS(=O)(=O)c1ccc(C)cc1 (stereo not drawn) [Compound 125] | 68 | 44 | > 3000 | –
Cc1ccc(S(=O)(=O)OCC(=O)CCC(C)C)cc1 [Compound 126] | 61 | 47 | > 3000 | –
CCCCC(C)C(=O)COS(=O)(=O)c1ccc(C)cc1 (stereo not drawn) [Compound 127] | 92 | 67 | > 3000 | –
CCCCC(CCC)C(=O)COS(=O)(=O)c1ccc(C)cc1 (stereo not drawn) [Compound 128] | 62 | 51 | > 3000 | –
CCOc1ccc(S(=O)(=O)OCC(=O)C(CC)CC)cc1 [Compound 131] | 110 | 97 | > 2000 | –
CCOc1ccc(S(=O)(=O)OCC(=O)CC(C)C)cc1 [Compound 132] | 87 | 90 | > 2000 | –
